Values after ≈ are worked out from the molar mass of the structure shown. Some results are limits rather than exact numbers.

One series deals with PBMC. Description: Antiinflammatory activity in human PBMC assessed as inhibition of LPS-induced TNFalpha production. Type of series: functional, cell-based.
Series [1] addresses Mitogen-activated protein kinase 14 (Homo sapiens, UniProt Q16539). Description: Inhibition of human recombinant p38alpha.
Series [2] can be described thus: Inhibition of VEGF receptor.
The target in series [3] is Tyrosine-protein kinase BTK (Homo sapiens, UniProt Q06187). Description: Inhibition of Btk.
The target of series [4] is Fibroblast growth factor receptor 1 (Homo sapiens, UniProt P11362). Description: Inhibition of FGFR1.
Series [5] is described as follows: Inhibition of CaMK2.
The next series concerns the target Cytochrome P450 2C19 (Homo sapiens, UniProt P33261). The series can be described thus: Inhibition of CYP2C19. Type of series: ADME.
Series [6] addresses Protein kinase C delta type (Homo sapiens, UniProt Q05655). Description: Inhibition of PKCdelta.
For series [7], the target named is Non-receptor tyrosine-protein kinase TYK2 (Homo sapiens, UniProt P29597). The series can be described thus: Inhibition of Tyk2.
Series [8] is described as follows: Inhibition of PDGF receptor.
For another series, the target named is Cytochrome P450 2C9 (Homo sapiens, UniProt P11712). Description: Inhibition of CYP2C9. The series is classed as ADME.
Another series has as its target Cytochrome P450 2D6 (Homo sapiens, UniProt P10635). The series can be described thus: Inhibition of CYP2D6. The series is classed as ADME.
The target in series [9] is Diacylglycerol O-acyltransferase 1 (Homo sapiens, UniProt O75907). The series can be described thus: Inhibition of DGAT.
Diacylglycerol O-acyltransferase 1, sequence (O75907 whole entry): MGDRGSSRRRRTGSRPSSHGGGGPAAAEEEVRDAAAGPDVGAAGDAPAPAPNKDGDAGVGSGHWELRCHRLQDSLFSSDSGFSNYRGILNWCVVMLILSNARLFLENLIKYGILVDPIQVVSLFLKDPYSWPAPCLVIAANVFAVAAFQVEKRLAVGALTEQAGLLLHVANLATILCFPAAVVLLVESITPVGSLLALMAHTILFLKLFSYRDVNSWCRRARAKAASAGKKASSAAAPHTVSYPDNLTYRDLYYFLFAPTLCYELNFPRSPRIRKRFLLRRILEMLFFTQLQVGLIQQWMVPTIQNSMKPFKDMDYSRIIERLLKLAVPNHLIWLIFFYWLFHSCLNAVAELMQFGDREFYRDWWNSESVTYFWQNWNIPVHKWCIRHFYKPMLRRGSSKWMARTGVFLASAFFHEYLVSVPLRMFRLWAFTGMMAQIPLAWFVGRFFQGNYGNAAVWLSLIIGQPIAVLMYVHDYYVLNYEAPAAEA
In a further series the test system is Mus musculus. Description: Antiinflammatory activity in mouse plasma assessed as inhibition of LPS-induced TNFalpha production at 5 mg/kg, po administered 24 hrs before LPS challenge measured after 90 mins. The series is classed as functional.
Series [10] addresses Tyrosine-protein kinase JAK3 (Homo sapiens, UniProt P52333). The series can be described thus: Inhibition of Jak3.
Series [11] concerns the target Protein kinase C alpha type (Homo sapiens, UniProt P17252). The series can be described thus: Inhibition of PKCalpha.
Series [12] deals with Signal transducer and activator of transcription 3 (Homo sapiens, UniProt P40763). The series can be described thus: Inhibition of STAT3.
Series [13] concerns the target MAP kinase-activated protein kinase 2 (Homo sapiens, UniProt P49137). Description: Inhibition of MK2.
Series [14] has as its target Insulin-like growth factor 1 receptor (Homo sapiens, UniProt P08069). The series can be described thus: Inhibition of IGF-1R.
Series [15] in a line: Aqueous solubility of the compound at pH 6.5. Type of series: physicochemical.
Series [16] is described as follows: Inhibition of PKCtau.
The nature of series [17]: Inhibition of GSK3.
Series [18] concerns the target Tyrosine-protein kinase ITK/TSK (Homo sapiens, UniProt Q08881). Description: Inhibition of Itk.
In series [19] the target is Serine/threonine-protein kinase PLK1 (Homo sapiens, UniProt P53350). Description: Inhibition of PLK1.
Serine/threonine-protein kinase PLK1, sequence (P53350 whole entry): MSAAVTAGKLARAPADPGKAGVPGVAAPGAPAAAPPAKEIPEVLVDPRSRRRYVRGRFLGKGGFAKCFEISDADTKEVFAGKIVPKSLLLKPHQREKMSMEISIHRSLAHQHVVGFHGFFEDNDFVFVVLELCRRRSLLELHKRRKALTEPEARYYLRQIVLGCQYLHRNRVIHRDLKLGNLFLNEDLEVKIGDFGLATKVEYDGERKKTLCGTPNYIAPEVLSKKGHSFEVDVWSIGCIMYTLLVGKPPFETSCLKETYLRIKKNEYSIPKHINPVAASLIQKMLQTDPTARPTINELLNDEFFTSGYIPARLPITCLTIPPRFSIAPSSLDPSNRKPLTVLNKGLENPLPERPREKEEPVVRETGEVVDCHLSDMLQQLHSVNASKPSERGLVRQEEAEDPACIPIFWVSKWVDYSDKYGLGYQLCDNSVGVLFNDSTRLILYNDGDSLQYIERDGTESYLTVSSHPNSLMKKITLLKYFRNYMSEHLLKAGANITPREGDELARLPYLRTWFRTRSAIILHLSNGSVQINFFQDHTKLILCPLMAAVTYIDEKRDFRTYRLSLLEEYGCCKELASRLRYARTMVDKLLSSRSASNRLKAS
For a further series, the target named is Cytochrome P450 3A4 (Homo sapiens, UniProt P08684). Description: Inhibition of CYP3A4. The series is classed as ADME.
For series [20], the target named is Protein kinase C zeta type (Homo sapiens, UniProt Q05513). The series can be described thus: Inhibition of PKCzeta.
The nature of series [21]: Inhibition of Lckzeta.
Series [22] concerns the target Vascular endothelial growth factor receptor 2 (Homo sapiens, UniProt P35968). The series can be described thus: Inhibition of KDR.
Series [23] in a line: Metabolic rate in human liver microsomes at 3 uM after 10 mins.
A short description of series [24]: Apparent permeability across human Caco-2 cells. Type of series: ADME, cell-based. Particulars: read-out: permeability.
Series [25] can be described thus: Metabolic rate in mouse liver microsomes at 3 uM after 10 mins.
Series [26] in a line: Metabolic rate in rat liver microsomes at 3 uM after 10 mins.
Series [27] concerns the target Voltage-gated inwardly rectifying potassium channel KCNH2 (Homo sapiens, UniProt Q12809). The series can be described thus: Inhibition of human ERG by flux assay.
The next series deals with Cytochrome P450 1A2 (Homo sapiens, UniProt P05177). Description: Inhibition of CYP1A2. The series is classed as ADME.

Mitogen-activated protein kinase 14, sequence (Q16539 whole entry): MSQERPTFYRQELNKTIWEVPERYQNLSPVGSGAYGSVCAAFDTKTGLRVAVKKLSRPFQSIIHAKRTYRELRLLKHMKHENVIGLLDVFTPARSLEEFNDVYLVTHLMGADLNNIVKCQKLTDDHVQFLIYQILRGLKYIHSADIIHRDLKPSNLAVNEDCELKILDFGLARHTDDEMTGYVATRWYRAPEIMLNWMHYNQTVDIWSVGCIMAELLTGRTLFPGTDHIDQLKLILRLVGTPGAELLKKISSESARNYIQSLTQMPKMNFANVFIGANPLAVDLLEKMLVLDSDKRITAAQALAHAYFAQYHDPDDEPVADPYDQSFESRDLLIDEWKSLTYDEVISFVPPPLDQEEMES
MAP kinase-activated protein kinase 2, sequence (P49137 whole entry): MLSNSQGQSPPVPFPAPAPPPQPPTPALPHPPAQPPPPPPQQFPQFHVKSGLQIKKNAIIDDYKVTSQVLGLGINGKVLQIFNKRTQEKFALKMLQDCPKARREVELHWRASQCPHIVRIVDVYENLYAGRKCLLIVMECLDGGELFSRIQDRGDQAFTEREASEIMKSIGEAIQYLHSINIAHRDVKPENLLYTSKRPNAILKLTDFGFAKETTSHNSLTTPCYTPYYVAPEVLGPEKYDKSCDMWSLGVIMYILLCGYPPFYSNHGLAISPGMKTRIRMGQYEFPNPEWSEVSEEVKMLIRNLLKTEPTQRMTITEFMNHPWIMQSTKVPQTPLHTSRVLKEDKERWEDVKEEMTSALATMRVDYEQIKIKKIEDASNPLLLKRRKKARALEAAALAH
Tyrosine-protein kinase ITK/TSK, sequence (Q08881 whole entry): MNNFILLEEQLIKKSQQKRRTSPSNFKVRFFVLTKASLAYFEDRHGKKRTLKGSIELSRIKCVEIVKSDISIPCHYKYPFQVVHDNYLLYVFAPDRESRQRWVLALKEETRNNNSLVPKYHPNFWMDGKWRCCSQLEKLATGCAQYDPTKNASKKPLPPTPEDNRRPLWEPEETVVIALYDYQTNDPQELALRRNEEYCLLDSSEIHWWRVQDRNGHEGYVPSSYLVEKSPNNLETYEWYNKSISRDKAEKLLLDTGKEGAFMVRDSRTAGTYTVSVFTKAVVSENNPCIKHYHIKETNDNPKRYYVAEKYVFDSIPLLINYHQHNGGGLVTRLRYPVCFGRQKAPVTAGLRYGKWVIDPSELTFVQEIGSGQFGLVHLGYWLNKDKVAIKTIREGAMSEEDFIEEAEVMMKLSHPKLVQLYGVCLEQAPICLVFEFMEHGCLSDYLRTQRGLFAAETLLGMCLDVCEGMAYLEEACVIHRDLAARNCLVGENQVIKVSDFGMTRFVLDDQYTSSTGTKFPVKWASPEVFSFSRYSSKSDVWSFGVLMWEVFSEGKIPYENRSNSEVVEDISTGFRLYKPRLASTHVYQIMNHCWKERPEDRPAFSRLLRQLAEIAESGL
Tyrosine-protein kinase JAK3, sequence (P52333 whole entry): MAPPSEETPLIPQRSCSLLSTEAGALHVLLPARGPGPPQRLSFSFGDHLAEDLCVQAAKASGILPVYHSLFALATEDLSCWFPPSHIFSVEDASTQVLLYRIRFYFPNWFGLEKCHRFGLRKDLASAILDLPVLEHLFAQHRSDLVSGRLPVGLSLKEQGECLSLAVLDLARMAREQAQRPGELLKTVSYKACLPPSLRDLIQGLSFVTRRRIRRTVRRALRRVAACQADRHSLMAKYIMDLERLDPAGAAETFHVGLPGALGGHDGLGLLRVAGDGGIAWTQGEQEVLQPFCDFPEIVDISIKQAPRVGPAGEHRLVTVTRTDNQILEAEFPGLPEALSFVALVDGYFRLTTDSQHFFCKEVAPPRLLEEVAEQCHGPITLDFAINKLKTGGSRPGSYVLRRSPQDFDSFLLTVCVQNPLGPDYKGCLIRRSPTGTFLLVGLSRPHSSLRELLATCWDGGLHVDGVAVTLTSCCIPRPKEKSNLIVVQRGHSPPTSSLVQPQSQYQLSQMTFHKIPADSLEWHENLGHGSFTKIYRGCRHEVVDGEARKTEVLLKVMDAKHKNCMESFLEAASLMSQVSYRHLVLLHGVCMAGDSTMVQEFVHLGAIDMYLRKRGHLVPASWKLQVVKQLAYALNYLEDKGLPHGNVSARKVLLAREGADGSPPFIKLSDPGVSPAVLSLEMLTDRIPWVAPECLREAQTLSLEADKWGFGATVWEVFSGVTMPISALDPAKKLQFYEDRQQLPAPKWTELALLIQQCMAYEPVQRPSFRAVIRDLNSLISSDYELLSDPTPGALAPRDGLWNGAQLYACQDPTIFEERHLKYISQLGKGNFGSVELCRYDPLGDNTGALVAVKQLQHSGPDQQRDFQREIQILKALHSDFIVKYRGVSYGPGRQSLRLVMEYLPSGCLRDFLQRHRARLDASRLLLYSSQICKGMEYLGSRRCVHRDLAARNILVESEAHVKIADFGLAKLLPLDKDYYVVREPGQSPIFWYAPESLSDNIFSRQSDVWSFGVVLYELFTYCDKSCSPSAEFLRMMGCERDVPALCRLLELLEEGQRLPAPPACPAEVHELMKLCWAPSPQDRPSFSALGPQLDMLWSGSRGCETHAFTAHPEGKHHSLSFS
Voltage-gated inwardly rectifying potassium channel KCNH2, sequence (Q12809 whole entry): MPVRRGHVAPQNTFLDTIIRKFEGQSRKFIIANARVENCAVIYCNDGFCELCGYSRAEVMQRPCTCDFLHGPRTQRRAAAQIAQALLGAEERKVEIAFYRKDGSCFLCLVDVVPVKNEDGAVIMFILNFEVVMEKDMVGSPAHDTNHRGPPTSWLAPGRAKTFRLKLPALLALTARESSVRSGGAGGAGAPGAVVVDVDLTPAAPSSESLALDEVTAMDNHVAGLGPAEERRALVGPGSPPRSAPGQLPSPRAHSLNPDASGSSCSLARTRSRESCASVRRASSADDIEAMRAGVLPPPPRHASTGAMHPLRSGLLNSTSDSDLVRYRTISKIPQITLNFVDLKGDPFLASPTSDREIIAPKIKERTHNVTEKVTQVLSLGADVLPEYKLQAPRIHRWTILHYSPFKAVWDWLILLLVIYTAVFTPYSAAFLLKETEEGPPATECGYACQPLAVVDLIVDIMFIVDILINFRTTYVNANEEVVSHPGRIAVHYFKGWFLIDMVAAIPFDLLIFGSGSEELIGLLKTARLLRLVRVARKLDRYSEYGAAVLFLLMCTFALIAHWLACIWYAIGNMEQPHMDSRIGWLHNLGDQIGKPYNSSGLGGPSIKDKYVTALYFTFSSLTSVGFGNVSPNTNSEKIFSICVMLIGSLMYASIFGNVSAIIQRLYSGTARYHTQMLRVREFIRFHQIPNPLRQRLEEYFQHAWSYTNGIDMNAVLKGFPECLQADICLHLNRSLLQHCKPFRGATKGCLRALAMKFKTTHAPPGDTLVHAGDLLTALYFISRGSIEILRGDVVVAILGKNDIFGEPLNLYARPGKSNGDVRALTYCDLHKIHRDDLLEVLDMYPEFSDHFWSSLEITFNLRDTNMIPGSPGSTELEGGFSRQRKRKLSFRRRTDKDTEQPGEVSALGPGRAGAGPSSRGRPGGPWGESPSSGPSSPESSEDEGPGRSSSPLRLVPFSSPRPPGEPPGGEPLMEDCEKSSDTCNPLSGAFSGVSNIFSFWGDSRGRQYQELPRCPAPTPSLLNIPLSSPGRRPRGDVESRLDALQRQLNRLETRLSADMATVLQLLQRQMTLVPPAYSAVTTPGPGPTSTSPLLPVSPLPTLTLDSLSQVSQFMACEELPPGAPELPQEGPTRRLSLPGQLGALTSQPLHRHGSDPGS

With `CCn1nccc1NC(=O)c1ccc(C)c(NC(=O)c2cnn(-c3ccccc3F)c2N)c1`, the 50% inhibitory concentration (IC50) was found to be 5 nM with PBMC and 3 nM in [1].

Consider `Cc1ccc(C(=O)NC2CC2)cc1NC(=O)c1cnn(-c2ccccc2)c1N`, for which the concentration for half-maximal inhibition (IC50) amounted to 26 nM with PBMC and 7 nM in series [1].

Turning to `CNC(=O)c1ccc(C)c(NC(=O)c2cnn(-c3ccccc3)c2N)c1`, the half-maximal inhibitory concentration (IC50) came to 48 nM in the series on PBMC and 14 nM in series [1].

For the compound `CCNc1c(C(=O)Nc2cc(C(=O)Nc3ccon3)ccc2C)cnn1-c1ccccc1C`, the figures for the concentration for half-maximal inhibition (IC50) (in the series on PBMC; in series [1]) were 1 nM and 5 nM, respectively.

As to `Cc1ccc(C(=O)Nc2ccon2)cc1NC(=O)c1cnn(-c2ccccn2)c1N`, the values for the IC50 (in the series on PBMC; in [1]) were 8 nM and 2 nM, respectively.

For `Cc1ccc(C(=O)Nc2ccnn2C)cc1NC(=O)c1cnn(-c2ccccc2)c1N`, the values for the IC50 (in the series with PBMC; in [1]) were 5 nM and 7 nM, respectively.

Take `CCn1nccc1NC(=O)c1ccc(C)c(NC(=O)c2cnn(-c3ccccc3)c2N)c1`: the IC50 in the series with PBMC stood at 8 nM; in series [1], 5 nM.

Regarding `CCNc1c(C(=O)Nc2cc(C(=O)Nc3ccon3)ccc2C)cnn1-c1ccccn1`, the values for the IC50 (in the series with PBMC; in series [1]) were 30 nM and 4 nM, respectively.

Regarding `CCNC(=O)c1ccc(C)c(NC(=O)c2cnn(-c3ccccc3)c2N)c1`, the results for the IC50 (in the series on PBMC; in [1]) were 16 nM and 8 nM, respectively.

For `CNc1c(C(=O)Nc2cc(C(=O)Nc3ccon3)ccc2C)cnn1-c1ccccc1`, the IC50 is 7 nM in the series with PBMC and 5 nM in [1].

For the compound `CCNC(=O)c1ccc(C)c(NC(=O)c2cnn(-c3ccccc3)c2NCC)c1`, the IC50 amounted to 15 nM in the series on PBMC and 6 nM in series [1].

`Cc1ccc(C(=O)Nc2ccnn2C)cc1NC(=O)c1cnn(-c2ccccc2F)c1N`: the IC50 in the series with PBMC turned out to be 2 nM; in series [1], 4 nM.

Regarding `CCCCn1ncc(C(=O)Nc2cc(C(=O)Nc3ccnn3C)ccc2C)c1N`, the 50% inhibitory concentration (IC50) was 17 nM in the series with PBMC and 7 nM in [1].

With `CCn1nccc1NC(=O)c1ccc(C)c(NC(=O)c2cnn(-c3ccc(F)cc3)c2N)c1`, the IC50 (in the series on PBMC; in series [1]) was 2 nM in each case.

`Cc1ccc(C(=O)Nc2ccon2)cc1NC(=O)c1cnn(-c2ccccc2F)c1N`: the IC50 in [2] is above 50000 nM; in series [3] it was above 15000 nM; in series [4], above 50000 nM; in [5], above 50000 nM; against Cytochrome P450 2C19, above 13000 nM; in series [6], above 40000 nM. Further, the concentration for half-maximal inhibition (IC50) in series [7] is above 5000 nM; in series [8], 9200 nM; at Cytochrome P450 2C9 it was 23000 nM; against Cytochrome P450 2D6 it was above 40000 nM; in series [9], above 20000 nM; in the series with PBMC, 1 nM. Further, the IC50 in series [10] is above 10000 nM; in series [11], above 40000 nM; in series [12] it was above 10000 nM; in series [13] it was above 30000 nM; in series [14] it was above 50000 nM; in series [16] it was above 13000 nM. The half-maximal inhibitory concentration (IC50) in series [17] is above 5000 nM; in series [18], above 50000 nM; in series [19] it was above 15000 nM; against Cytochrome P450 3A4, above 40000 nM; in series [20] it was above 20000 nM; in series [1] it was 2 nM. The IC50 in series [21] was above 50000 nM; in [22], above 50000 nM; in [27], above 160000 nM; at Cytochrome P450 1A2, above 40000 nM. In addition, in the series on Mus musculus, the inhibition in vivo at 5 mg/kg was above 75%. The compound further registered a solubility in series [15] of 33 µg/mL (≈ 78.5 µM). The metabolic rate at 10 min, 3 µM stood at 0.001 nmol/min/mg in series [23], 0 nmol/min/mg in series [25] and 0 nmol/min/mg in [26]. The Papp in series [24] was determined as 23.1 ×10⁻⁶ cm/s.

In the case of `CCCCn1ncc(C(=O)Nc2cc(C(=O)Nc3ccon3)ccc2C)c1N`, the IC50 (in the series with PBMC; in series [1]) was 2 nM each time.

Take `Cc1ccc(C(=O)Nc2ccon2)cc1NC(=O)c1cnn(-c2ccccc2)c1N`: the half-maximal inhibitory concentration (IC50) in the series with PBMC amounted to 1 nM.

For the compound `Cc1ccc(C(=O)Nc2ccon2)cc1NC(=O)c1cnn(-c2ccc(F)cc2)c1N`, the half-maximal inhibitory concentration (IC50) (with PBMC; in series [1]) was 2 nM throughout.

Source of the values: ChEMBL document CHEMBL1287714, “5-amino-pyrazoles as potent and selective p38α inhibitors” (Bioorg Med Chem Lett, 2010).
